In patent US10758534B2 (Vertex Pharmaceuticals Incorporated, priority 2014, dated 2020):

The compounds below were run against T1, F508del (Homo sapiens, UniProt P13569, DEL508-508) (assay: Protocol 1: membrane potential optical assay (FLIPR III, voltage sensing dye), identification of potentiator compounds). Details: Table 3, compounds of Table 1.
T1 construct: expressed in transfected cells
Format: cell-based
Procedure, shortened: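 Read-out: change in voltage-sensing dye fluorescence (FLIPR III) as a measure of F508del conductance. Temperature-corrected (27° C, 24 hrs) NIH 3T3 cells expressing F508del are pretreated with potentiators, dye-loaded, then stimulated with forskolin under a chloride ion gradient using chloride-free gluconate bath.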

T1 sequence (P13569 with tags, fused parts or gaps DEL508-508): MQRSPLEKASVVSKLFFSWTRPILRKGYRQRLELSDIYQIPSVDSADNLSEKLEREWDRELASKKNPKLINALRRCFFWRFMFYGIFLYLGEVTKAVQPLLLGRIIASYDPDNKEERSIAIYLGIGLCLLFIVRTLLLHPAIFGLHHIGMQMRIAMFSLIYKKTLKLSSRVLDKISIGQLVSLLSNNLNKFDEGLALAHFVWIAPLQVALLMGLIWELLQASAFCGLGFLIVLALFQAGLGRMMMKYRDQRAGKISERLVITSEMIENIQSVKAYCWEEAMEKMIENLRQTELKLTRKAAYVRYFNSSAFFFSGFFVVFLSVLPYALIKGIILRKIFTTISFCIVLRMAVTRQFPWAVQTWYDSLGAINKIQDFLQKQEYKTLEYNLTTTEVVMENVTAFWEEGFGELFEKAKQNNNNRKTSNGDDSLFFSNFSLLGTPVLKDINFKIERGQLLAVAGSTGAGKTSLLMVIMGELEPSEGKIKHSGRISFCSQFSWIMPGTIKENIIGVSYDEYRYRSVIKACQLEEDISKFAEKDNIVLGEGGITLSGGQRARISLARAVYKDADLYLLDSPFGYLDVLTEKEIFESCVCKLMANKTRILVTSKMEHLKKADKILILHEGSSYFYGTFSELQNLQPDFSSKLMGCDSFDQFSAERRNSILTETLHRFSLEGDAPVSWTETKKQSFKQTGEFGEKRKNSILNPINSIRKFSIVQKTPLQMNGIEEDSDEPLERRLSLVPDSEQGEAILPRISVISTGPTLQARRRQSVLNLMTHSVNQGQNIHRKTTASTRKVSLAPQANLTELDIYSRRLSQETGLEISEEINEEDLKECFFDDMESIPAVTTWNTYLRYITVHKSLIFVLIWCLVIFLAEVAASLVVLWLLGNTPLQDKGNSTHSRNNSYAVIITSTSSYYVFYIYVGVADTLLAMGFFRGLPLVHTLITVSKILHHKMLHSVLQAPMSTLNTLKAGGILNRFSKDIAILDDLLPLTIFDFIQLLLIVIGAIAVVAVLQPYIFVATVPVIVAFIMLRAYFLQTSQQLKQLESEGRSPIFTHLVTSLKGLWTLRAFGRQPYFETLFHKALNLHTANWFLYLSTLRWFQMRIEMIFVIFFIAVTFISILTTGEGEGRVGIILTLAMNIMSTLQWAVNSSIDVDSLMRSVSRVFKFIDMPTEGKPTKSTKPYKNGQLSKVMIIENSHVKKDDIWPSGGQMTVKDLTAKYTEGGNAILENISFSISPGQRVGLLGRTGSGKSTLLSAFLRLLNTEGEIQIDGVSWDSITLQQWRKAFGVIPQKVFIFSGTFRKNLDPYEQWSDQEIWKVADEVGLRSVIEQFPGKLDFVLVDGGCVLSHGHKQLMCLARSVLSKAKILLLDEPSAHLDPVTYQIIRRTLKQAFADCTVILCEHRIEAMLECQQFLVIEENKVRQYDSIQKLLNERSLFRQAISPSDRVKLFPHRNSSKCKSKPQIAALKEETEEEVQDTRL

SMILES | EC30
Cc1cc(C)c(Oc2nc(-c3ccc(CN4CCOCC4)cc3)ccc2C(=O)NS(=O)(=O)c2cccc(N)n2)c(C)c1 [Compound 810, N-[(6-amino-2-pyridyl)sulfonyl]-6-[4-(morpholinomethyl)phenyl]-2-(2,4,6-trimethylphenoxy)pyridine-3-carboxamide] | ++ (“++” means between 3 uM and 10 uM)
CC(C)COc1cc(F)cc(-c2ccc(C(=O)NS(=O)(=O)c3cccc(N)n3)c(OC3CCC3C3CC3)n2)c1 (stereo not shown) [Compound 1530, N-[(6-amino-2-pyridyl)sulfonyl]-2-(2-cyclopropylcyclobutoxy)-6-(3-fluoro-5-isobutoxy-phenyl)pyridine-3-carboxamide] | +++ (“+++” means <3 uM)
CC(C)COc1cc(F)cc(-c2ccc(C(=O)NS(=O)(=O)c3cccc(N)n3)c(C3=CCC(C(F)(F)F)CC3)n2)c1 (stereo not shown) [Compound 1667, N-[(6-amino-2-pyridyl)sulfonyl]-6-(3-fluoro-5-isobutoxy-phenyl)-2-[4-(trifluoromethyl)cyclohexen-1-yl]pyridine-3-carboxamide] | ++ (“++” means between 3 uM and 10 uM)
Cc1ccc(-c2ccc(C(=O)NS(=O)(=O)c3cccc(N)n3)c(N3CCC(C)CC3)n2)cc1 [Compound 802, N-[(6-amino-2-pyridyl)sulfonyl]-2-(4-methyl-1-piperidyl)-6-(p-tolyl)pyridine-3-carboxamide] | +++ (“+++” means <3 uM)
CC1CN(c2ncccc2C(=O)NS(=O)(=O)c2cccc(Nc3cc4ccccc4cn3)n2)C(C)(C)C1 (stereo not shown) [Compound 1933, N—[[6-(3-isoquinolylamino)-2-pyridyl]sulfonyl]-2-(2,2,4-trimethylpyrrolidin-1-yl)pyridine-3-carboxamide] | +++ (“+++” means <3 uM)
Cc1ccc(-c2ccc(C(=O)NS(=O)(=O)c3ccc[nH]c3=O)c(N3C[C@@H](C)CC3(C)C)n2)c2ccccc12 [Compound 1811, 6-(4-methyl-1-naphthyl)-N-[(2-oxo-1H-pyridin-3-yl)sulfonyl]-2-[(4S)-2,2,4-trimethylpyrrolidin-1-yl]pyridine-3-carboxamide] | +++ (“+++” means <3 uM)
COc1cc(-c2ccc(C(=O)NS(=O)(=O)c3cccc(N)n3)c(Oc3c(C)cc(C)cc3C)n2)ccc1C#N [Compound 923, N-[(6-amino-2-pyridyl)sulfonyl]-6-(4-cyano-3-methoxy-phenyl)-2-(2,4,6-trimethylphenoxy)pyridine-3-carboxamide] | +++ (“+++” means <3 uM)
CC(C)COc1cc(F)cc(-c2ccc(C(=O)NS(=O)(=O)c3cccc(N)n3)c(N3CC(C(F)(F)F)CCC3C)n2)c1 (stereo not shown) [Compound 1835, N-[(6-amino-2-pyridyl)sulfonyl]-6-(3-fluoro-5-isobutoxy-phenyl)-2-[2-methyl-5-(trifluoromethyl)-1-piperidyl]pyridine-3-carboxamide] | +++ (“+++” means <3 uM)
C[C@@H]1CN(c2nc(/C=C/C3CC3)ccc2C(=O)NS(=O)(=O)c2cccc(N)n2)C(C)(C)C1 [Compound 1379, N-[(6-amino-2-pyridyl)sulfonyl]-6-[(E)-2-cyclopropylvinyl]-2-[(4S)-2,2,4-trimethylpyrrolidin-1-yl]pyridine-3-carboxamide] | +++ (“+++” means <3 uM)
CC(CO)COc1cc(F)cc(-c2ccc(C(=O)NS(=O)(=O)c3cccc(N)n3)c(N3C[C@@H](C)CC3(C)C)n2)c1 (stereo partly drawn) [Compound 1567, N-[(6-amino-2-pyridyl)sulfonyl]-6-[3-fluoro-5-(3-hydroxy-2-methyl-propoxy)phenyl]-2-[(4S)-2,2,4-trimethylpyrrolidin-1-yl]pyridine-3-carboxamide] | +++ (“+++” means <3 uM)
CC1CN(c2ncccc2C(=O)NS(=O)(=O)c2cccc(NCc3cc(F)ccc3F)n2)C(C)(C)C1 (stereo not shown) [Compound 1770, N—[[6-[(2,5-difluorophenyl)methylamino]-2-pyridyl]sulfonyl]-2-(2,2,4-trimethylpyrrolidin-1-yl)pyridine-3-carboxamide] | +++ (“+++” means <3 uM)
Cc1cc(C)c(Oc2nc(-c3ccc4cn(C)nc4c3)ccc2C(=O)NS(=O)(=O)c2cccc(N)n2)c(C)c1 [Compound 1299, N-[(6-amino-2-pyridyl)sulfonyl]-6-(2-methylindazol-6-yl)-2-(2,4,6-trimethylphenoxy)pyridine-3-carboxamide] | ++ (“++” means between 3 uM and 10 uM)
CC(C)COc1cncc(-c2ccc(C(=O)NS(=O)(=O)c3cccc(N)n3)c(N3[C@H](C)CC[C@@H]3C)n2)c1 [Compound 1224, N-[(6-amino-2-pyridyl)sulfonyl]-2-[(2S,5R)-2,5-dimethylpyrrolidin-1-yl]-6-(5-isobutoxy-3-pyridyl)pyridine-3-carboxamide] | ++ (“++” means between 3 uM and 10 uM)
Cc1cc(C)c(Oc2nc(C(C)(C)C)ccc2C(=O)NS(=O)(=O)c2cccc(NCCO)n2)c(C)c1 [Compound 916, 6-tert-butyl-N-[[6-(2-hydroxyethylamino)-2-pyridyl]sulfonyl]-2-(2,4,6-trimethylphenoxy)pyridine-3-carboxamide] | +++ (“+++” means <3 uM)
Cc1cc(C)c(Oc2nc(-c3cc(F)cc(OC(C)C)c3)ccc2C(=O)NS(=O)(=O)c2cc[nH]n2)c(C)c1 [Compound 914, 6-(3-fluoro-5-isopropoxy-phenyl)-N-(1H-pyrazol-3-ylsulfonyl)-2-(2,4,6-trimethylphenoxy)pyridine-3-carboxamide] | +++ (“+++” means <3 uM)
CC(C)COc1cc(F)cc(-c2ccc(C(=O)NS(=O)(=O)c3cccc(N)c3)c(N3CC(C)CC3(C)C)n2)c1 (stereo not shown) [Compound 1184, N-(3-aminophenyl)sulfonyl-6-(3-fluoro-5-isobutoxy-phenyl)-2-(2,2,4-trimethylpyrrolidin-1-yl)pyridine-3-carboxamide] | +++ (“+++” means <3 uM)
C[C@@H]1CN(c2ncc(Cl)cc2C(=O)NS(=O)(=O)c2cccc(N)n2)C(C)(C)C1 [Compound 1603, N-[(6-amino-2-pyridyl)sulfonyl]-5-chloro-2-[(4S)-2,2,4-trimethylpyrrolidin-1-yl]pyridine-3-carboxamide] | ++ (“++” means between 3 uM and 10 uM)
Cc1cc(F)ccc1Oc1nc(C(C)(C)C)ccc1C(=O)NS(=O)(=O)c1cccc(N)n1 [Compound 1104, N-[(6-amino-2-pyridyl)sulfonyl]-6-tert-butyl-2-(4-fluoro-2-methyl-phenoxy)pyridine-3-carboxamide] | +++ (“+++” means <3 uM)
Cc1cc(C)c(Oc2nc(-c3cc(F)cc(F)c3)ccc2C(=O)NS(=O)(=O)c2cccc(N)n2)c(C)c1 [Compound 1325, N-[(6-amino-2-pyridyl)sulfonyl]-6-(3,5-difluorophenyl)-2-(2,4,6-trimethylphenoxy)pyridine-3-carboxamide] | +++ (“+++” means <3 uM)
CC1CN(c2ncccc2C(=O)NS(=O)(=O)c2cccc(OCC3CCC=CO3)n2)C(C)(C)C1 (stereo not shown) [Compound 1874, N—[[6-(3,4-dihydro-2H-pyran-2-ylmethoxy)-2-pyridyl]sulfonyl]-2-(2,2,4-trimethylpyrrolidin-1-yl)pyridine-3-carboxamide] | +++ (“+++” means <3 uM)
Cc1cc(C)cc(-c2ccc(C(=O)NS(=O)(=O)N3CC[C@H](N)C3)c(N3C[C@@H](C)CC3(C)C)n2)c1 [Compound 1839, N-[(3S)-3-aminopyrrolidin-1-yl]sulfonyl-6-(3,5-dimethylphenyl)-2-[(4S)-2,2,4-trimethylpyrrolidin-1-yl]pyridine-3-carboxamide] | +++ (“+++” means <3 uM)
CC(C)CNc1cccc(-c2ccc(C(=O)NS(=O)(=O)c3cccc(N)n3)c(N3CC(C)CC3(C)C)n2)n1 (stereo not shown) [Compound 1059, N-[(6-amino-2-pyridyl)sulfonyl]-6-[6-(isobutylamino)-2-pyridyl]-2-(2,2,4-trimethylpyrrolidin-1-yl)pyridine-3-carboxamide] | +++ (“+++” means <3 uM)
C[C@@H]1CN(c2nc3c(cc2C(=O)NS(=O)(=O)c2cccc(N)n2)CCC3)C(C)(C)C1 [Compound 1386, N-[(6-amino-2-pyridyl)sulfonyl]-2-[(4S)-2,2,4-trimethylpyrrolidin-1-yl]-6,7-dihydro-5H-cyclopenta[b]pyridine-3-carboxamide] | ++ (“++” means between 3 uM and 10 uM)
CC(C)COc1cc(F)cc(-c2ccc(C(=O)NS(=O)(=O)c3cccc(N)n3)c(N3[C@H](C)CCC3(C)C)n2)c1 [Compound 1166, N-[(6-amino-2-pyridyl)sulfonyl]-6-(3-fluoro-5-isobutoxy-phenyl)-2-[(5R)-2,2,5-trimethylpyrrolidin-1-yl]pyridine-3-carboxamide] | +++ (“+++” means <3 uM)
CC(C)COc1cc(F)cc(-c2ccc(C(=O)NS(=O)(=O)c3cccc(N)n3)c(N(C)C3CC3)n2)c1 [Compound 1117, N-[(6-amino-2-pyridyl)sulfonyl]-2-[cyclopropyl(methyl)amino]-6-(3-fluoro-5-isobutoxy-phenyl)pyridine-3-carboxamide] | +++ (“+++” means <3 uM)
CCOCCOCCOc1ncc(-c2ccc(C(=O)NS(=O)(=O)c3cccc(N)n3)c(N3C[C@@H](C)CC3(C)C)n2)cc1C [Compound 1715, N-[(6-amino-2-pyridyl)sulfonyl]-6-[6-[2-(2-ethoxyethoxy)ethoxy]-5-methyl-3-pyridyl]-2-[(4S)-2,2,4-trimethylpyrrolidin-1-yl]pyridine-3-carboxamide] | +++ (“+++” means <3 uM)
CC1CCN(c2nc3c(cc2C(=O)NS(=O)(=O)c2ccn[nH]2)CCCC3(C)C)CC1 [Compound 800, 8,8-dimethyl-2-(4-methyl-1-piperidyl)-N-(1H-pyrazol-5-ylsulfonyl)-6,7-dihydro-5H-quinoline-3-carboxamide] | ++ (“++” means between 3 uM and 10 uM)
CC(C)COc1cc(F)cc(-c2ccc(C(=O)NS(=O)(=O)c3cccc(N)n3)c(N3CC4CCC3CC4)n2)c1 [Compound 1657, N-[(6-amino-2-pyridyl)sulfonyl]-2-(3-azabicyclo[2.2.2]octan-3-yl)-6-(3-fluoro-5-isobutoxy-phenyl)pyridine-3-carboxamide] | +++ (“+++” means <3 uM)
